Several values for one entry are separate records, joined by “and”; a condition that tells them apart may be missing. Equal entries are not always repeated.
Test: Determination of nanoparticle (lipoplex) size by dynamic light scattering
Type: physicochemical
Conditions: ratio 3:24 (w:w); for Conformity (C)/ Non-conformity (NC) / Mean Diameter (nm): complexes with pDNA; for Mean Diameter (nm): dynamic light scattering at 25°C; for Mean Diameter (nm) / PDI: triplicate measurements; for PDI: polydispersity index of complexes with pDNA, 25°C
Experimental: • 1. Preparative HPLC Method: Unless otherwise indicated, the compounds described herein were purified by RP-MPLC ARMEN® Spot Flash Liquid Chromatography (ARMEN Instrument, Saint Ave, France) on a preparative column (SVF D26) packed with 25-40 µm C18 resin (Merck chimie SAS), by applying a linear gradient of 0-10% MeCN in NH4OAc (10 mM) solution (pH = 9) over 60 min at a 15 mL/min flow rate. The purification was monitored at 254 nm. Suitable fractions were pooled and lyophilised. • 2. Proton NMR Spectra: Unless otherwise indicated, all ^1H NMR spectra were run on a Bruker series 300 MHz instrument. Where so characterized, all observed protons are reported as parts-per-million (ppm) downfield from tetramethylsilane (TMS) or other internal reference in the appropriate solvent indicated. NMR spectra were recorded on a Brucker 300 spectrometer. For ^1H (300 MHz) spectra δ values were referenced to CDCI3-d1 (7.26 ppm), DMSO- d6 (2.50 ppm), D2O-d2 (4.79 ppm) or MeOD-d4 (3.31 ppm). The peak patterns are indicated as follows: s: singlet, sl: large singlet, d: doublet, t: triplet, q: quartet, m: multiplet. • 3. Mass Spectra (MS): Analyses were run on an Agilent Model 6130 quadrupole MS. Unless otherwise indicated, all mass spectral data for starting materials, intermediates and/or exemplary compounds are reported as mass/charge (m/z), having an (M+H)^+ molecular ion. The molecular ion reported was obtained by electrospray detection method (commonly referred to as an ESI MS). Compounds having an isotopic atom, such as bromine and the like, are generally reported according to the detected isotopic pattern, as appreciated by those skilled in the art. • 4. Particle size: Particle size was determined using a Malvern Nanosizer (Malvern, Worcestershire, UK) and Malvern ZETASIZER.RTM. (Malvern, Worcestershire, UK). • 5. Naming Convention The compounds disclosed and described herein have been named using the naming convention provided with Chem-Draw Ultra 11.0 software, available in Chem. Office. In some instances, compounds were named with the term "spermine" inserted where appropriate. For example, where the spermine is substituted with Boc, "N1,N5,N10-TriBoc-spermine" is added to the Chem-Draw nomenclature in the appropriate place. Chem-Draw utilizes the ISIS Draw software compound naming convention, as appreciated by those skilled in the art.
For pDNA:TLR7-TLR2 polyamine molecules complexes, a ratio pDNA:TLR7-TLR2 polyamine molecules of 3:24 (w:w) was prepared in serum-free culture medium or in 5% glucose. The TLR7-TLR2 conjugated compound of interest was prediluted in serum-free culture medium or in 5% glucose and incubated for 5 minutes at room temperature, prior to the addition of an endotoxin-free, salt-free preparation of pDNA. In these experiments, the pBsr2pCpGLacZh plasmid was used in the pDNA:TLR7-TLR2 polyamine molecule complexes. The pDNA:TLR7-TLR2 polyamine molecule mixtures were incubated at room temperature for 30 minutes to allow the formation of the complex. The control used in these experiments was the cationic lipid transfection agent LyoVec™ (InvivoGen) prepared in a similar manner.
In order to confirm that TLR7-TLR2 polyamine molecules complex DNA, lipoplex size was determined. The physical characterization of complex was achieved by dynamic light scattering using the analytical equipment for laser diffraction Zetasizer Nano-ZS (Malvern). pDNA:TLR7-TLR2 polyamine molecule complexes were prepared as described above. Subsequently, 50µl of pDNA: TLR7-TLR2 polyamine molecule complexes were placed into a disposable sizing cuvette and measurements were made under conditions defined according to manufacturer's instructions. The measurements were made at 25°C in triplicate and a size distribution report was obtained. […]

Mean Diameter (nm)	PDI	SMILES	Conformity (C)/ Non-conformity (NC)
209,2 nm and 179,7 nm and 202,0 nm	0,236 and 0,232 and 0,234	CCCCCCCCCCCCCCCC(=O)OCC(CSC[C@H](N)C(=O)NCCCC[C@H](NC(=O)c1ccc(Cn2c(O)nc3c(N)nc(NCCCC)nc32)cc1)C(=O)NCCCNCCCCNCCCN)OC(=O)CCCCCCCCCCCCCCC (stereo partly drawn) [CL486, (6R,13S)-6,27-diamino-13-(4-((6-amino-2-(butylamino)-8-hydroxy-9H-purin-9-yl)methyl)benzamido)-7,14-dioxo-4-thia-8,15,19,24-tetraazaheptacosane-1,2-diyl dipalmitate]	C (ranged between 140 and 200 nm in diameter were considered to show conformity)
249,1 nm and 309,6 nm and 258,3 nm	0,303 and 0,354 and 0,372	CCCCCCCCCCCCCCCC(=O)OCC(CSC[C@H](N)C(=O)N[C@@H](COC(=O)c1ccc(Cn2c(O)nc3c(N)nc(NCCCC)nc32)cc1)C(=O)NCCCNCCCCNCCCN)OC(=O)CCCCCCCCCCCCCCC (stereo partly drawn) [CL514, (6R,9S)-6,23-diamino-9-((4-((6-amino-2-(butylamino)-8-hydroxy-9H-purin-9-yl)methyl)benzoyloxy)methyl)-7,10-dioxo-4-thia-8,11,15,20-tetraazatricosane-1,2-diyl dipalmitate]	C (ranged between 140 and 200 nm in diameter were considered to show conformity)

Continued, compound first:

SMILES	Mean Diameter (nm)	PDI	Conformity (C)/ Non-conformity (NC)
CCCCCCCCCCCCCCCC(=O)OCC(CSC[C@H](N)C(=O)NCCCC[C@H](NC(=O)CNC(=O)c1ccc(Cn2c(O)nc3c(N)nc(NCCCC)nc32)cc1)C(=O)NCCCNCCCCNCCCN)OC(=O)CCCCCCCCCCCCCCC (stereo partly drawn) [CL487, (6R,13S)-6,27-diamino-13-(2-(4-((6-amino-2-(butylamino)-8-hydroxy-9H-purin-9-yl)methyl)benzamido)acetamido)-7,14-dioxo-4-thia-8,15,19,24-tetraazaheptacosane-1,2-diyl dipalmitate]	148,1 nm and 165,6 nm and 160,0 nm	0,23 and 0,255 and 0,241	C (ranged between 140 and 200 nm in diameter were considered to show conformity)
CCCCCCCCCCCCCCCC(=O)OCC(CSC[C@H](N)C(=O)N[C@@H](CCC(=O)NCCCNCCCCNCCCN)C(=O)Nc1ccc(Cn2c(O)nc3c(N)nc(NCCCC)nc32)cc1)OC(=O)CCCCCCCCCCCCCCC (stereo partly drawn) [CL527, (6R,9S)-6,25-diamino-9-(4-((6-amino-2-(butylamino)-8-hydroxy-9H-purin-9-yl)methyl)phenylcarbamoyl)-7,12-dioxo-4-thia-8,13,17,22-tetraazapentacosane-1,2-diyl dipalmitate]	175,1 nm and 156,9 nm and 168,3 nm	0,253 and 0,239 and 0,258	C (ranged between 140 and 200 nm in diameter were considered to show conformity)
CCCCCCCCCCCCCCCC(=O)OCC(CSC[C@H](N)C(=O)N[C@@H](CCCCNC(=O)CNC(=O)c1ccc(Cn2c(O)nc3c(N)nc(NCCCC)nc32)cc1)C(=O)NCCCNCCCCNCCCN)OC(=O)CCCCCCCCCCCCCCC (stereo partly drawn) [CL475, (6R,9S)-6,23-diamino-9-(4-(2-(4-((6-amino-2-(butylamino)-8-hydroxy-9H-purin-9-yl)methyl)benzamido)acetamido)butyl)-7,10-dioxo-4-thia-8,11,15,20-tetraazatrico sane-1,2-diyl dipalmitate]	145,9 nm and 155,8 nm and 153,5 nm	0,193 and 0,176 and 0,158	C (ranged between 140 and 200 nm in diameter were considered to show conformity)
CCCCCCCCCCCCCCCC(=O)OCC(CSC[C@H](N)C(=O)NCCCNCCCCNCCCNC(=O)CNC(=O)c1ccc(Cn2c(O)nc3c(N)nc(NCCCC)nc32)cc1)OC(=O)CCCCCCCCCCCCCCC (stereo partly drawn) [CL553, (20R)-20-amino-1-(4-((6-amino-2-(butylamino)-8-hydroxy-9H-purin-9-yl)methyl)phenyl)-1,4,19-trioxo-22-thia-2,5,9,14,18-pentaazapentacosane-24,25-diyl dipalmitate]	170.0 nm and 190.0 nm and 180,2 nm	0,226 and 0,230 and 0,237	C (ranged between 140 and 200 nm in diameter were considered to show conformity)
